The results in this text go back to patent US10000471B2, “Pyrazole P38 map kinase inhibitors” (Respivert Limited, priority 2010, dated 2018).

The target in series [1] is T1, p38 MAPKα isoform (MAPK14) (Homo sapiens, UniProt Q16539).
T1 construct: purchased Invitrogen
The series can be described thus: Enzyme inhibition assay (FRET, Z-LYTE), p38 MAPKα via MAPKAP-K2 activation. The class given is biochemical. The following applies: read-out: Enzyme Inhibition IC50 p38α. In a few lines:
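Z-LYTE FRET format, in which protease cleaves only non-phosphorylated peptide, read after 1 h development. Compound was mixed with p38 MAPKα for 2 h at RT, and inhibition was gauged from MAPKAP-K2 activation/phosphorylation rather than directly. Percent inhibition against an uninhibited control was fitted to give IC50.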

A further series deals with T2, p38 MAPKγ (MAPK12) (Homo sapiens, UniProt P53778).
T2 construct: purchased Invitrogen
T2 sequence (P53778 1-367): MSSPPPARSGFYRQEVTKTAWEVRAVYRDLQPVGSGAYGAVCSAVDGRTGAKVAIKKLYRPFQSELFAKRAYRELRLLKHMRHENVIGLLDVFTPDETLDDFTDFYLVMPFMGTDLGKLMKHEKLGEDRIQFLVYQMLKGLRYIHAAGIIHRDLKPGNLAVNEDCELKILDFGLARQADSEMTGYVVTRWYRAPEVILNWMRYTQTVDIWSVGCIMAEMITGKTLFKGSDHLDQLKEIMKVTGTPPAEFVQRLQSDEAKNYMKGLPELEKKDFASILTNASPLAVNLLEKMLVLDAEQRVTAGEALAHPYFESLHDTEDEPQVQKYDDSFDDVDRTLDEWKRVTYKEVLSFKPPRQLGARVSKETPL
The series can be described thus: Enzyme inhibition assay (FRET, Z-LYTE), p38 MAPKγ. Format: biochemical. The following applies: read-out: Enzyme Inhibition IC50 p38γ. In a few lines: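 Z-LYTE FRET readout: after 1 h kinase reaction (ATP 100 μM, peptide 2 μM) following 2 h RT enzyme–compound preincubation in HEPES, protease cleaves only unphosphorylated peptide. Percent inhibition from donor/acceptor ratio relative to control; IC50 fitted from the curve.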

The test system of series [2] is TNFα release in THP-1 cells. Nature of the series: LPS-induced TNFα release in THP-1 cells. As to conditions: Homo sapiens. The class given is cell-based, human. In a few lines: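 IC50 derived from concentration-response of TNFα inhibition relative to vehicle, with TNFα quantified by sandwich ELISA in supernatants. THP-1 cells were challenged 4 hr with LPS (E. coli, 3 μg/mL).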

For series [3], the system named is TNFα release in d-U937 cells. Nature of the series: LPS-induced TNFα release in d-U937 cells. Format: cell-based, human. The following applies: Homo sapiens, dU937, relative to 10 μg/mL BIRB796, read-out: LPS/TNFα REC50 d-U937. The method, boiled down: (§1)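 Sandwich ELISA of TNFα and IL-8 in supernatants after 4 hr 0.1 μg/mL LPS (E. coli O111:B4) challenge of U937 cells differentiated with PMA 100 ng/ml for 48–72 hr, compound added 2 hr beforehand. IL-8: IC50 from inhibition versus vehicle; TNFα: REC50 from inhibition as percentage of 10 μg/mL BIRB796 effect.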

For series [4], the system named is IL-8 release in d-U937 cells. Nature of the series: LPS-induced IL-8 release in d-U937 cells. The class given is cell-based, human. As to conditions: Homo sapiens, dU937. In a few lines: as §1
The subject of series [5] is ICAM-1 induction in BEAS2B cells. The series can be described thus: Poly I:C-induced ICAM-1 induction in BEAS2B cells. Format: cell-based, human. As to conditions: Homo sapiens, BEAS-2B, read-out: PolyIC/ICAM1 IC50 BEAS2B. The method, boiled down:
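IC50 reflects inhibition of cell-surface ICAM-1 relative to vehicle, read by ELISA (OD450 against 655 nm) and divided by crystal violet OD595 for cell number. Readings were taken 18 hr after transfection of 1 μg/mL poly I:C into BEAS2B cells. Compound was added 2 hr before stimulation.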

Series [6] relates to Differentiated U937 cells. Nature of the series: Cell viability MTT assay. The class given is cell-based, human. As to conditions: negative = apparent increase in viability; for MTT Assay (Viability) 4 h d-U937, percentage loss of cell viability: 4 hr in 5% FCS; for MTT Assay (Viability) 24 h d-U937, percentage loss of cell viability: 24 h in 10% FCS. In a few lines:
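Differentiated U937 cells pre-incubated with compound either 4 hr in 5% FCS or 24 h in 10% FCS, then 1 hr MTT. Formazan dissolved in DMSO, absorbance at 550 nm. Percentage viability loss relative to 0.5% DMSO vehicle; apparent increases appear as negative percentages.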
In general terms: Tetrazolium dyes change colour on reduction, which living cells bring about.

Molecules are shown by their SMILES.

T1 sequence (Q16539 whole entry, canonical isoform): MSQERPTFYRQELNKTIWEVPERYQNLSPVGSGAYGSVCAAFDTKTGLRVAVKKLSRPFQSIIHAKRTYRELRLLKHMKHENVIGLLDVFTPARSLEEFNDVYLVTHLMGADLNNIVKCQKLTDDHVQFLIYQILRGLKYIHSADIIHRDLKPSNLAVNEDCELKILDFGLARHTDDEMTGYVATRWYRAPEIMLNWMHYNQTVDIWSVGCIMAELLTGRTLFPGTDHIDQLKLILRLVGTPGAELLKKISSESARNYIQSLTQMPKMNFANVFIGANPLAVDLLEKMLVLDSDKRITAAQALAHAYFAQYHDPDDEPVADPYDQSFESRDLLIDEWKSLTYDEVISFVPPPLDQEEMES

As for `COCC(=O)Nc1cc(Oc2ccc(NC(=O)Nc3cc(C(C)(C)C)nn3-c3ccc(C)cc3)c(Cl)c2C(F)(F)F)ccn1` [Example 37, N-(4-(4-(3-(3-tert-butyl-1-p-tolyl-1H-pyrazol-5-yl)ureido)-3-chloro-2-trifluoromethylphenoxy)pyridin-2-yl)-2-methoxyacetamide], the IC50 worked out at 0.102 µM in series [1]; 0.159 µM at p38 MAPKγ (MAPK12); 0.0018 µM in series [2]; 0.0069 µM in series [4]; 0.004 µM in series [5]. The EC50 in series [3] stood at 0.0019 µM. The “MTT Assay (Viability) 4 h d-U937, percentage loss of cell viability” value in series [6] is recorded as −0.4%. The “MTT Assay (Viability) 24 h d-U937, percentage loss of cell viability” value in series [6] worked out at 24.7%.
Turning to `COCC(=O)Nc1cc(Oc2cc(Cl)c(NC(=O)Nc3cc(C(C)(C)C)nn3-c3ccc(C)cc3)cc2F)ccn1` [Example 38, N-(4-(4-(3-(3-tert-butyl-1-p-tolyl-1H-pyrazol-5-yl)ureido)-5-chloro-2-fluorophenoxy)pyridin-2-yl)-2-methoxyacetamide], the IC50 was 0.063 µM in series [1]; 0.0359 µM on p38 MAPKγ (MAPK12); 0.0037 µM in series [2]; 0.16 µM in series [4]; 0.0248 µM in series [5]. The EC50 in series [3] came to 0.0541 µM. In addition, in series [6], the “MTT Assay (Viability) 4 h d-U937, percentage loss of cell viability” value is 0.6%. For the same compound, the “MTT Assay (Viability) 24 h d-U937, percentage loss of cell viability” value in series [6] is 64.1%.
Consider `COCC(=O)Nc1cc(Oc2cc(Cl)c(NC(=O)Nc3cc(C(C)(C)C)nn3-c3ccc(C)cc3)cc2Cl)ccn1` [Example 39, N-(4-(4-(3-(3-tert-butyl-1-p-tolyl-1H-pyrazol-5-yl)ureido)-2,5-dichlorophenoxy)pyridin-2-yl)-2-methoxyacetamide], for which the IC50 in series [1] is 0.0115 µM; at p38 MAPKγ (MAPK12), 3.47 µM; in series [2], 0.0096 µM; in series [4] it was 0.108 µM; in series [5], 0.109 µM. Moreover, the EC50 in series [3] is 0.027 µM. The “MTT Assay (Viability) 4 h d-U937, percentage loss of cell viability” value in series [6] is listed as 6.5%. Further, in series [6], the “MTT Assay (Viability) 24 h d-U937, percentage loss of cell viability” value is −3.0%.
In the case of `COCC(=O)Nc1cc(Oc2ccc(NC(=O)Nc3cc(C(C)(C)C)nn3-c3ccc(C)cc3)c3ncccc23)ccn1` [Example 40, N-(4-(8-(3-(3-tert-butyl-1-p-tolyl-1H-pyrazol-5-yl)ureido)quinolin-5-yloxy)pyridin-2-yl)-2-methoxyacetamide], the IC50 in series [1] was found to be 0.0003 µM; at p38 MAPKγ (MAPK12), 0.189 µM; in series [2], 0.0007 µM; in series [4] it was 0.002 µM; in series [5], 0.0166 µM. Moreover, the EC50 in series [3] amounted to 0.0016 µM. Further, the “MTT Assay (Viability) 4 h d-U937, percentage loss of cell viability” value in series [6] is recorded as −10.7%. Further, the “MTT Assay (Viability) 24 h d-U937, percentage loss of cell viability” value in series [6] was 28.4%.
In the case of `COCC(=O)Nc1cc(Oc2ccc(NC(=O)Nc3cc(C(C)(C)C)nn3-c3ccc(O)cc3)c(Cl)c2Cl)ccn1` [Example 41, N-(4-(4-(3-(3-tert-butyl-1-(4-hydroxyphenyl)-1H-pyrazol-5-yl)ureido)-2,3-dichlorophenoxy)pyridin-2-yl)-2-methoxyacetamide], the IC50 in series [1] was determined as 0.0549 µM; at p38 MAPKγ (MAPK12), 0.0465 µM; in series [2], 0.0003 µM; in series [4] it was 0.0016 µM; in series [5], 0.0014 µM. Further, the EC50 in series [3] was determined as 0.0002 µM. The “MTT Assay (Viability) 4 h d-U937, percentage loss of cell viability” value in series [6] is −24.0%. In addition, the “MTT Assay (Viability) 24 h d-U937, percentage loss of cell viability” value in series [6] is 76.5%.
With `CNCC(=O)Nc1cc(Oc2ccc(NC(=O)Nc3cc(C(C)(C)C)nn3-c3ccc(OC)cc3)c(Cl)c2Cl)ccn1` [Example 42, N-(4-(4-(3-(3-tert-butyl-1-(4-methoxyphenyl)-1H-pyrazol-5-yl)ureido)-2,3-dichlorophenoxy)pyridin-2-yl)-2-(methylamino)acetamide], the IC50 amounted to 0.0146 µM in series [1]; 0.028 µM at p38 MAPKγ (MAPK12); 0.0007 µM in series [2]; 0.0011 µM in series [4]; 0.0031 µM in series [5]. Further, in series [3], the EC50 was determined as 0.0013 µM. The “MTT Assay (Viability) 4 h d-U937, percentage loss of cell viability” value in series [6] is listed as −4.4%. Also, the “MTT Assay (Viability) 24 h d-U937, percentage loss of cell viability” value in series [6] is 67.9%.
